# From patent US9023809B2, “Phenylalanine dipeptide derivatives, compositions and use thereof” (The Key Laboratory of Chemistry For Natural Products of …, priority 2008, dated 2015)
# Marks after values point to notes of the source that are not given here.
# Experiments:
# [1] = tested on: HBsAg; assay: In vitro anti-HBV: inhibition of HBsAg secretion in 2.2.15 cell supernatant (RIA); format: cell-based, hepatitis B virus; conditions: 2.2.15 cells, day 8, RIA
# Protocol: Test Principle: • 2.2.15 cells were used as a vector of hepatitis B virus. Samples were assayed for their abilities to inhibit […] to carry out DNA replication and to produce HBsAg and HBeAg.
# Test Materials and Method: • a. cell line: 2.2.15 cells; • b. treatment of samples: A sample was dissolved in DMSO in a suitable concentration right before use. The resulting solution was diluted in triple folds with culture media. There are eight dilutions. • c. positive control: Lamivudine (3TC) produced by Glaxo Wellcome; • d. reagents: radioimmunological kits of e antigen and s antigen of hepatitis B virus, α^32PdCTP; • e. test method: 2.2.15 cells were seeded in a 96-well microplate. After 36 hours, samples and positive controls in the above dilutions were added into the wells. Cell control wells were simultaneously set up. Culture media were replaced with fresh culture media containing samples in different dilutions, respectively, after 96 hours of addition of samples and positive controls. At the eighth day of addition of samples and positive controls, cell supernatants and 2.2.15 cells were harvested, respectively. Secretory volumes of HBsAg and HBeAg in the cell supernatants were assayed with the RIA method. The degree of HBV DNA replication in the cells was assayed with dot blot method. IC50 and SI were calculated, respectively.
# [2] = tested on: HBeAg; conditions: 2.2.15 cells, day 8, RIA
# Protocol: Test Principle: • 2.2.15 cells were used as a vector of hepatitis B virus. Samples were assayed for their abilities to inhibit NBV to carry out DNA replication and to produce HBsAg and HBeAg.
# Test Materials and Method: • a. cell line: 2.2.15 cells; • b. treatment of samples: A sample was dissolved in DMSO in a suitable concentration right before use. The resulting solution was diluted in triple folds with culture media. […] After 36 hours, samples and positive controls in the above dilutions were added into the wells. Cell control wells were simultaneously set up. Culture media were replaced with fresh culture media containing samples in different dilutions, respectively, after 96 hours of addition of samples and positive controls. At the eighth day of addition of samples and positive controls, cell supernatants and 2.2.15 cells were harvested, respectively. Secretory volumes of HBsAg and HBeAg in the cell supernatants were assayed with the RIA method. The degree of HBV DNA replication in the cells was assayed with dot blot method. IC50 and SI were calculated, respectively.
# [3] = tested on: DHBV-DNA; assay: In vivo inhibition of DHBV-DNA in DHBV-infected ducklings; conditions: intraperitoneal daily
# Description: Test compounds: the compound prepared in Example 75
# Test method: One-day-old ducklings were infected with serum containing DHBV positive virus (about 10^8-9 virions/ml). After a week, blood was collected and tested. The successfully transfected ducklings were randomly divided into three to five groups. Blank group, positive control group and treatment group(s) (one to three groups) were subjected to treatment tests. The treatment groups were divided into high, median and low dose groups. Intraperitoneal injection was carried out daily for ten days. Physiological saline was used to replace drugs in the blank group. Lamivudine was administered in the positive control group. […] Serum was separated and kept at −70° C. for tests. Duck hepatitis B virus surface antigen (DHBsAg) was assayed with DHBsAg dot molecular hybridization (DOT EIA). Duck hepatitis B virus deoxyribonucleic acid (DHBV DNA) contents in serum and duck livers were assayed with dot blot hybridization.
# [4] = tested on: HBV DNA replication; assay: In vitro anti-HBV: inhibition of HBV DNA replication in 2.2.15 cells (dot blot); format: cell-based, hepatitis B virus; conditions: day 8, dot blot
# Protocol: (§1) Cell control wells were simultaneously set up. […] IC50 and SI were calculated, respectively.
# [5] = tested on: 2.2.15 cells; assay: Cytotoxicity (TC50, median toxic concentration) in 2.2.15 cells; format: cell-based
# Protocol: as §1
# [6] = 12.5 mg/kg, 3rd Day of Withdrawal
# [7] = 25.0 mg/kg, 3rd Day of Withdrawal
# [8] = 50.0 mg/kg, 3rd Day of Withdrawal
compound,measurement,setting,value
"CN(C)CCOc1ccc(C[C@H](NC(=O)c2ccccc2)C(=O)N[C@H](CO)Cc2ccccc2)cc1.Cl [Example 75, N-[N-berizoyl-O-(2-dimethylamino-ethyl)-L-tyrosyl]-L-phenylalaninol hydrochloride]",Inhibition of HBsAg IC50,[1],33.51 µg/mL
same,Inhibition of HBeAg IC50,[2],13.51 µg/mL
same,Inhibition Ratio,[3]; [6],9.23
same,OD Value,[3]; [6],1.09
same,Inhibition Ratio,"[3]; 12.5 mg/kg, 5th Day of Test",12.87
same,OD Value,"[3]; 12.5 mg/kg, 5th Day of Test",1.11
same,Inhibition Ratio,"[3]; 12.5 mg/kg, 10th Day of Test",12.92^a
same,OD Value,"[3]; 12.5 mg/kg, 10th Day of Test",1.11^a
same,Inhibition Ratio,[3]; [7],38.12^d
same,OD Value,[3]; [7],0.87^b
same,Inhibition Ratio,"[3]; 25.0 mg/kg, 5th Day of Test",18.67^c
same,OD Value,"[3]; 25.0 mg/kg, 5th Day of Test",1.15^a
same,Inhibition Ratio,"[3]; 25.0 mg/kg, 10th Day of Test",32.91^d
same,OD Value,"[3]; 25.0 mg/kg, 10th Day of Test",0.95^b
same,Inhibition Ratio,[3]; [8],42.30^d
same,OD Value,[3]; [8],0.83^b
same,Inhibition Ratio,"[3]; 50.0 mg/kg, 5th Day of Test",36.43^c
same,OD Value,"[3]; 50.0 mg/kg, 5th Day of Test",0.94^a
same,Inhibition Ratio,"[3]; 50.0 mg/kg, 10th Day of Test",54.62^d
same,OD Value,"[3]; 50.0 mg/kg, 10th Day of Test",0.73^b
same,Inhibition of DNA Replication IC50,[4],2.41 µg/mL
same,TC50,[5],388.03 µg/mL
